Entries after “also recorded” stand apart in the source; their conditions may differ. Read-outs that look alike come from different tables or passages of the source.
Key:
647-RhoA = target: T1, 647-RhoA (Homo sapiens, UniProt P61586); experiment: Microscale thermophoresis (MST) with 647-RhoA; type: binding; settings: for Kd: mean ± SEM
T1 construct: made in house
Protocol: (§1) The final concentration of GFP-AKAP-Lbc/DHPH was set to 150 nM, 95% LED and 80% MST laser power. […] The samples were incubated in the dark for 1 h incubation at room temperature, and measured with 30 sec laser-on and 5 sec laser-off time at a Monolith NT.115 device (NanoTemper). Measured fluorescence (F) was normalised (Fhot/Fcold = Fsteady state/Finitial state, Fig 3). Values of thermophoresis + T-jump were related to average of each measurement row (16 capillaries). Final values are given as ‰.
(§2) Fig 4 The Scaff10 derivative Scaff10-8 binds to RhoA but not to the DHPH domain of AKAP-Lbc. (A-D) Microscale thermophoresis (MST) takes advantage of the phenomenon of directed movement of particles in a temperature gradient. Binding events lead to changes in the hydration shell of biomolecules and a relative change of movement of the molecular complex along a temperature gradient. Using such changes, binding affinities can be determined. MST assays were carried out with (A) the recombinant DHPH domain of AKAP-Lbc fused with GFP and RhoA as a ligand and (B) fluorescent 647-RhoA and the His-tagged AKAP-Lbc/DHPH domain as a ligand. (C) MST assays for the analysis of the binding of Scaff10-8 to 647-RhoA. Upper panels: The concentration of fluorescent 647-RhoA remained constant and Scaff10-8 (left) and Scaff10-7 as a negative control (right) were titrated in increasing concentrations. Lower panels: Values of fluorescence corresponding to upper panels. (D) MST assay showing no binding of Scaff10-8 or Scaff10-7 to GFP-DHPH. Upper panels: The concentration of fluorescent GFP-AKAP-Lbc/DHPH remained constant and Scaff10-8 (left) and Scaff10-7 (right) were titrated in increasing concentrations. Lower panels: Values of fluorescence corresponding to upper panels. […] F norm = normalized fluorescence (fluorescence steady state/fluorescence initial state) indicated in ‰. n = 3–5. Mean ± SEM. […] The ligand protein named in each panel heading is used as the substance label, and it is uncertain whether these count as substances.

Nephelometric solubility = type: physicochemical; settings: maximal solubility in DMEM + 10 % FCS
Protocol: Solubility of Scaff10 derivatives was assessed nephelometrically. Scaff10 derivatives are moderately to poorly soluble in aqueous solutions due to their large number of aromatic rings having lipophilic character. Details about NMR, LC/MS and HPLC characterization steps are given in the Supplemental Information.
Suppl. Tab. 3: Overview of all 55 Scaff10 derivatives.Structures labeld with 1 were commercially obtained. MW = molecular weight. logP = calculated partition coefficient (using […]
Solubility was assessed nephelometrically in DMEM + 10 % FCS + Scaff10 derivative with either 0.3 or 2 % DMSO
final concentration; values in µM indicate maximal solubility of the compound under the respective condition. Yield in % indicates total yield of the last step of chemical synthesis
for each of Scaff10 derivatives. n.d. = not determined. n.i. = not indicated.
Scaff10 MW Number of exp. 2 % DMSO 0.3 % DMSO Scaff10 Yield
Structure log P Disruption of the PPI IC50 [µM]
derivative [g/mol] in dupl. [µM] [µM] class [%]

[1] = target: T2, interaction of AKAP-Lbc/DHPH and RhoA (Homo sapiens, UniProt P61586); experiment: Homogeneous time-resolved fluorescence (HTRF) assay; type: binding; settings: HTRF; for IC50: Table 1, '-' = no IC50, inactive (n.d. is used separately in S3 Table); for inhibitory effect on the AKAP-Lbc/DHPH-RhoA interaction: result in words
T2 construct: His6-AKAP-Lbc/DHPH (aa 1972–2342 of human AKAP-Lbc; NP_006729.4); made in house
Text: Fig 2 The small molecule Scaff10-8 inhibits the interaction of the DH domain of AKAP-Lbc and RhoA. (A). Principle of homogenous time-resolved fluorescence (HTRF) assay. Recombinant His-AKAP-Lbc/DHPH and GST-RhoA were generated. The tags are recognized by specific antibodies coupled to fluorescent dyes. When the two proteins interact, donor and acceptor dyes of the antibodies are in close proximity, energy transfer occurs upon excitation at 320 nm and a FRET signal is detected (665 nm). If a compound disrupts the interaction of the DHPH domain and RhoA, the proximity of the fluorescent moieties remains insufficient for a FRET signal to occur. […] As expected, excess untagged Rho decreases the binding between GST-RhoA and His-AKAP-Lbc/DHPH in a dose-dependent manner (lower left panel). […] (C) The influence of Scaff10-8 on the interaction of RhoA with the recombinant DH domain of AKAP-Lbc in the absence of the PH domain was determined by Alpha screen. […] The IC50 value is indicated.
The assay was essentially carried out as described. Scaff10 derivatives were added to His6-AKAP-Lbc/DHPH protein (250 nM final concentration) in HTRF buffer (PBS; 4 mM MgCl2; 0.05% Tween 20) in 384 well plates (Proxiplate-384 Plus, white, #6008289; Perkin Elmer LAS, Rodgau, Germany). Concentrations of Scaff10 derivatives ranged between 1.56–200 μM (2% DMSO final concentration); HTRF buffer with 2% DMSO served as a control. GST-RhoA (30 nM final concentration) in HTRF buffer and anti-GST antibody coupled to terbium (donor) and anti-His6-tag antibody coupled to XL665 (acceptor) were added to all wells (final antibody concentration: 2 μg/ml). After 1 h incubation at room temperature in the dark, FRET signals were recorded at 620 and 665 nm using a Genios Pro plate reader (Tecan Austria GmbH, Grödig, AT) and the ratios of […] to 620 nm were calculated. Wells containing no compound were set to 100% interaction of AKAP-Lbc/DHPH with RhoA, wells containing GST-RhoA only (without His6-AKAP-Lbc/DHPH) were set to 0% interaction. To exclude any interference of the tags and/or antibodies with Scaff10 derivatives, a His6-GST fusion protein replaced the two tagged proteins in a control assay. Wells containing His6-GST fusion protein were set to 100% interaction of His6-GST, wells containing no fusion protein were set to 0% interaction.

GFP-AKAP-Lbc/DHPH = target: T3, GFP-AKAP-Lbc/DHPH (Homo sapiens, UniProt Q12802); experiment: Microscale thermophoresis (MST) with GFP-AKAP-Lbc/DHPH; type: binding; settings: read-out: KD for binding to GFP-AKAP-Lbc/DHPH
T3 construct: His6-AKAP-Lbc/DHPH (aa 1972–2342 of human AKAP-Lbc; NP_006729.4); made in house; host or cells: HEK293-EBNA cells (transient transfection, pTT5)
T3 sequence (Q12802 1972-2342 isoform Q12802-2): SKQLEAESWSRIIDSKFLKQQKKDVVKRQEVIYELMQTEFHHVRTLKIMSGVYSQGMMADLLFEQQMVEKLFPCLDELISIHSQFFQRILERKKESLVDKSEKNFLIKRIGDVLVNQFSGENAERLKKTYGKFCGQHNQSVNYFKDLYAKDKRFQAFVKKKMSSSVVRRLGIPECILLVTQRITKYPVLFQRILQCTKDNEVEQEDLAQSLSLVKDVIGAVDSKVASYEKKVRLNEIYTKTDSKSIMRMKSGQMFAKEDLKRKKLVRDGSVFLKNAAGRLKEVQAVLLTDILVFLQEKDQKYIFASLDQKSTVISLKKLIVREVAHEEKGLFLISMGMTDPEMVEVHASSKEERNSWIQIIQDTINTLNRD
Protocol: as §1, §2

[2] = comparison value, no reference given; cited from earlier work
[3] = test system: AQP2 localization in MCD4 cells; experiment: Immunofluorescence microscopy of AQP2 in MCD4 cells; type: cell-based, mouse; settings: 30 μM
[4] = target: T4, interaction of the DH domain of AKAP-Lbc and RhoA (Homo sapiens, UniProt P61586); experiment: Alpha screen assay; type: binding; settings: result in words
T4 construct: The proteins used were N-terminally His6-tagged AKAP-Lbc-DH domain
Protocol: Assays were performed according to the manufacturer’s protocol (PerkinElmer) with minor modifications. All reagents were diluted in buffer containing 25 mM Hepes, pH 7.4, 100 mM NaCl, 0.1% bovine serum albumin, 0.05% CHAPS and 50 μM GDP and allowed to equilibrate to room temperature before addition to plates. […] The proteins used were N-terminally His6-tagged AKAP-Lbc-DH domain and C-terminally biotinylated RhoA. […] 8 μL of assay buffer containing donor and acceptor beads at 1:400 dilution was then added, the plate was incubated in the dark for 60 min and then read on a PheraStar FS plate reader (BMG Labtech, Germany) using an AlphaScreen^TM 680 excitation/570 emission filter set.
11.6 μL of a solution containing 100 nM RhoA and 200 nM AKAP13 in assay buffer was added and incubated with the compounds for 30 min at RT in foil-sealed plates. 8 μL of assay buffer containing donor and acceptor beads at 1:400 dilution was added. The plate was incubated in the dark for 60 min and then read on a PheraStar FS plate reader.

[5] = DMEM + 10 % FCS, plasma or biological fluid, kinetic from dmso stock, 0.3 % DMSO final, read-out: Solubility 0.3 % DMSO
[6] = DMEM + 10 % FCS, plasma or biological fluid, kinetic from dmso stock, 2 % DMSO final, read-out: Solubility 2 % DMSO

T1 sequence (P61586 whole entry): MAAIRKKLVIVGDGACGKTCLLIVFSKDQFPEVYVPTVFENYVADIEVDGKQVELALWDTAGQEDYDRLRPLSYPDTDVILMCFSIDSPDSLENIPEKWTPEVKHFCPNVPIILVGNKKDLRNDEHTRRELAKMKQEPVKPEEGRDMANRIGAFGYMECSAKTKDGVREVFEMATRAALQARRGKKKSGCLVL
T2 sequence (P61586 whole entry, the tested form may be a part): as the sequence (P61586 whole entry) above
T4 sequence (P61586 whole entry, the tested form may be a part): as the sequence (P61586 whole entry) above

Cc1c(CCC(=O)O)c(=O)oc2cc3occ(-c4ccc(Oc5ccccc5)cc4)c3cc12 [Scaff10-38]
Kd (647-RhoA; KD for binding to 647-RhoA, n = 3–5): 19.5 ± 4.1 µM | solubility (Nephelometric solubility; [5]): > 150 µM | solubility (Nephelometric solubility; [6]): 100 µM | IC50 ([1]; IC50 ± SEM): 36.7 ± 3.3 µM

untagged RhoA: recombinant untagged RhoA protein used as competitor or ligand
Kd (GFP-AKAP-Lbc/DHPH): 42 ± 5 µM

CC(=O)NO [acetohydroxamic acid]
pKa [2]: 8.7

COC(=O)CCc1c(C)c2cc3c(-c4ccc(OC)cc4)coc3cc2oc1=O [Scaff10-48]
binding to 647-RhoA (647-RhoA; result in words): did not bind | solubility (Nephelometric solubility; 0.3 % DMSO final, read-out: Solubility 0.3 % DMSO): 75 µM | solubility (Nephelometric solubility; 2 % DMSO final, read-out: Solubility 2 % DMSO): 30 µM | inhibitory effect on the AKAP-Lbc/DHPH-RhoA interaction [1]: complete loss of the inhibitory effect | IC50 ([1]; read-out: IC50 ± SEM): > 200 µM

O=C(O)/C=C/c1ccccc1 [cinnamic acid]
pKa [2]: 4.44

CCOC(=O)CCc1c(C)c2ccc(OCc3ccc(OC)cc3)cc2oc1=O [Scaff10-59]
localization of AQP2 in MCD4 cells [3]: did not affect the location of AQP2 | inhibitory effect in Alpha screen [4]: without inhibitory effects | solubility (Nephelometric solubility; [5]): 40 µM | solubility (Nephelometric solubility; [6]): 30 µM | inhibitory effect on the AKAP-Lbc/DHPH-RhoA interaction [1]: did not; also recorded: without inhibitory effects | IC50 ([1]; read-out: IC50 ± SEM): > 200 µM

B1: His-AKAP-Lbc/DHPH: recombinant His-tagged DHPH domain of AKAP-Lbc (protein)
chain: T3 sequence (Q12802 1972-2342 isoform Q12802-2)
modifications: left off: His6, end not stated, kept
Kd (647-RhoA; n = 3–5, read-out: KD for binding to 647-RhoA): 14 ± 4 µM

— paper PMC5786306, “An AKAP-Lbc-RhoA interaction inhibitor promotes the translocation of aquaporin-2 to the plasma membrane of renal collecting duct principal cells” (PLoS ONE, 2018)
